# Results published in patent publication US4863748A, “Dietary products and uses comprising methylsulfonylmethane” (priority 1986, dated 1989).
# How the values were obtained:
# [1] = system: nutritional secondary hyperparathyroidism with obvious epiphysitis; assay: Nutritional secondary hyperparathyroidism with epiphysitis in horses (Example 3); format: in vivo, horse; conditions: 12 grams twice daily in feed; conventional treatment 60-90 days minimum
# From the text: Calcium/phosphorous balance is critical in the horse, where these elements comprise roughly 70% of the mineral content of the horse's body. Calcium deficiency, or the reverse, viz., phosphorous excess, is undesirable. Phosphorous excess in feed will decrease intestinal absorption, resulting in lowered blood plasma calcium. One result is a stimulation in the dietary deficiency condition called nutritional secondary hyperparathyroidism. Calcium denied for bone development results in an enlargement of structurally defective fibrous tissue. In horse leg bones, it is called epiphysitis when stress inflammation is presented.
# Two colts and four fillies were studied, all diagnosed as having nutritional secondary hyperparathyroidism with obvious epiphysitis. Each was provided with 12 grams of methylsulfonylmethane twice daily in a bran/molasses blend intermixed with their standard dry feed prior to feeding. The supplemented feed was well accepted. All signs and symptoms of this nutritional deficiency disease was corrected in from seven to ten days. Conventional treatment for correcting dietary calcium deficiency requires a minimum of 60-90 days before relief from inflammation is obtained. Except for the added methylsulfonylmethane, there was no change in the diet of these […] horses. The added dietary factor corrected this easily recognizable dietary deficiency in all of the horses.
# [2] = system: coat; assay: Coat quality of dogs (Example 7); format: in vivo, dog (female labradors); conditions: 5% in drinking water, 45 days; three individuals
# From the text: The coats of animals A and B of Example 6 were examined by three individuals.
# [3] = system: subjects in apparent good health; assay: Maintenance of good health (Example 12); format: in vivo, human
# Method: 14 subjects of both sexes, all in apparent good health, ages 33-59, were given oral methylsulfonylmethane in amounts ranging from 250 to 500 mg daily which maintained their blood levels above 1 ppm. These individuals were continued on methylsulfonylmethane, taken as a solution in orange juice for periods of from about seven months to over one year.
# [4] = system: rabbit eye; assay: Rabbit eye irritated with sodium lauryl sulfate (Example 14); format: in vivo; conditions: 10% aqueous solution every hour
# [5] = system: pain and inflammation of musculoskeletal system disorders; assay: Pain associated with systemic inflammatory disorders (Example 15); format: in vivo, human
# From the text: subject two, presented chronic arthritis with painful involvement of the lower trunk. Over the years they had evaluated most new antiarthritic, analgesic drugs with disappointing results.
# [6] = system: Escherichia coli; assay: In vitro antibacterial action; format: cell-based
# From the text: (§1) While not as potent or toxic to microbial populations as specific drug agents, by reason of its extremely low host systemic toxicity, methylsulfonylmethane contrasts sharply with present antiinfective therapeutants and methodology. It is doubtful if chemical resistance will develop with infective agents controlled by high, but safe, systemic levels of methylsulfonylmethane.
# [7] = system: Leuconostoc citrovorum; assay: In vitro antibacterial action; format: cell-based
# From the text: as §1
# [8] = system: Salmonello typhimurium; assay: In vitro antibacterial action; format: cell-based
# From the text: as §1
# [9] = system: Staphylococcus aureus; assay: In vitro antibacterial action; format: cell-based
# From the text: as §1
# [10] = system: Streptococcus thermophilus; assay: In vitro antibacterial action; format: cell-based
# From the text: as §1
# [11] = system: Aspergillus niger; assay: Antifungal activity; format: cell-based; conditions: 500 ppm
# From the text: as §1
# [12] = system: Phytophthora cinnamomi; assay: Antifungal activity; format: cell-based; conditions: 500 ppm
# From the text: as §1
# [13] = system: Sclerotium rolfsii; assay: Antifungal activity; format: cell-based; conditions: 500 ppm
# From the text: as §1
# [14] = system: sun and wind burn; assay: Sun and wind burn (Example 23); format: in vivo, human; conditions: 0.5-2 gm/day, about 4 hours exposure; companions severely burned
# [15] = system: leg cramps; assay: Night leg cramps in geriatric patient (Example 26); format: in vivo, human; conditions: 10 mg/kg/day
# Method: Administer methylsulfonylmethane to a geriatric patient (over 65 years) suffering from chronic night leg cramps at the rate of 10 mg/kg/day, either in tablet or capsule form, as described in parent application Ser. Nos. 418,110, 584,354 or 601,771, or in admixture with one or more foodstuffs ingested daily by the patient, e.g., milk, coffee, tea, cold desserts, etc. Within about 2 days, the leg cramps will diminish in frequency or disappear.
# [16] = system: arthritis; assay: Canine arthritis and other sources of pain (Example 30); format: in vivo, dog
# From the text: In each case the methylsulfonylmethane was admixed with the animal's food just prior to feeding.
# This animal, although owned by a veterinarian, had not responded to a variety of therapeutic regimens over the previous 12 months. Methylsulfonylmethane was given to this dog in its food at a level of 1.5 grams b.i.d. X 1 month.
# It was mobile but walked with obvious difficulty and discomfort. The animals was refractory to both cortisone and phenylbutazone.
# The animal had not responded to either cortisone nor phenylbutazone and its condition was deteriorating rapidly. Methylsulfonylmethane was included in its diet at 1 gm/day b.i.d. After one week, the dog appeared to be pain-free.
# [17] = system: spontaneous mouse lymphomas; assay: Spontaneous mouse lymphomas, survival (Example 37); format: in vivo, laboratory mice; conditions: 3% by wt. in water; all 12 controls dead by month 4
# Method: Laboratory mice genetically predisposed to lymphoma development were selected for this test. Humoral immunity participation was measured as was the effect of methylsulfonylmethane on an animal's life span. One set of 12 mice were maintained as controls. The treated (T) group received identical treatment except for their water given ad lib, which contained 3% by wt. of methylsulfonylmethane in solution.
# By month 4 of this test, all controls were dead, due to lymphoma development. […] These normal balb/c strain mice of group T were tested for t-lymphocyte dependent (t-d) and t-lymphocyte independent (t-i) immune responses. […] Based on these preliminary results, at high enough daily rates of ingestion, methylsulfonylmethane stimulates humoral immunity thereby providing protection to otherwise lethal spontaneous mouse lymphomas.
# [18] = system: skin; assay: Effect on skin tissue; conditions: in vivo
# From the text: Studies to date indicate that it is desirable that animals ingest about 0.5-1.0 milligram/kg body weight/day of methylsulfonylmethane to maintain optimum good health. However, any lower level will serve some benefit. Higher levels are either stored in the body as a sulfur reserve, provide a sufficient concentration to optimize synthesis of the multitude of required sulfur containing biomolecules, or simply are excreted as by the renal pathway or through the skin.
# [19] = system: anticholinesterases; conditions: in vivo; cited from earlier work
# [20] = 250 to 500 mg daily, seven months to over one year
smiles,measurement,setting,value
CS(C)(=O)=O [methylsulfonylmethane],time to correction of all signs and symptoms,[1],seven to ten
same,coat quality (thickness and shiny appearance),[2],superior
same,blood level,[3]; 250 to 500 mg daily oral,above 1 ppm
same,illness during testing,[3]; [20],None of the 14 became ill
same,reported well-being,[3]; [20],feeling better and stronger with increased endurance
same,clearing of irritated eye,[4],quickly cleared
same,"relief of pain and inflammation, musculoskeletal system disorders","[5]; about 100 up to about 5,000 mg per day",substantial and long lasting relief
same,relief in migraine sufferers,[5]; oral 50-500 mg per day,substantial relief
same,pain after about 16 months,"[5]; subject two, 1/4-1/2 tsp. daily",substantially pain-free
same,pain relief by the end of the second week,"[5]; subject two, chronic arthritis, 1/2 tsp. daily",almost total pain relief
same,in vitro antibacterial action,[6],weak
same,in vitro antibacterial action,[7],weak
same,in vitro antibacterial action,[8],weak
same,in vitro antibacterial action,[9],weak
same,in vitro antibacterial action,[10],weak
same,antiparasitic (antifungal) activity,[11],good antiparasitic activity
same,antiparasitic (antifungal) activity,[12],good antiparasitic activity
same,antiparasitic (antifungal) activity,[13],good antiparasitic activity
same,suffering from sun and wind exposure,[14],suffered only mildly
same,time until leg cramps diminish in frequency or disappear,[15],about 2 days
same,"benefit, Dog A","[16]; Dog A, 0.5 g/day b.i.d., 7 days",without apparent benefit
same,"time to free mobility without evident discomfort nor ataxia, Dog A","[16]; Dog A, 1.5 g/day b.i.d.",≤ 10 days
same,"benefit, Dog B","[16]; Dog B, 1.5 grams b.i.d. X 1 month",no apparent benefit
same,"mobility over the first month, Dog C","[16]; Dog C, 0.5 grams b.i.d.",gradual improvement
same,"musculoskeletal restriction and discomfort in third month, Dog C","[16]; Dog C, 0.5 grams b.i.d.",neither musculoskelatal restriction nor discomfort
same,"pain after one week, Dog D","[16]; Dog D, 1 gm/day b.i.d.",pain-free
same,"state at over six months, Dog D","[16]; Dog D, 1 gm/day b.i.d.","apparently healthy and frisky, requiring no medication"
same,deaths by month 5,[17],No T group mice had died
same,pliability and softness of the skin,[18],improving
same,"lethal effects of anticholinesterases such as paraoxon, tetraethyl pyrophosphate and octamethyl pyrophosphoramide",[19],antagonizes
